A short description of this data set: Acute toxicity, LD50 in mice (Litchfield and Wilcoxon). As to conditions: mouse, in vivo, po. As for the experimental part:
LD50 values were determined in mice and calculated according to the method of Litchfield and Wilcoxon described in J. Pharmacol. Exp. Ther., 96, 99 (1949).

The text below walks through data of patent publication US4293553A, “1-Phthalazone derivatives, and use thereof” (Ishikawa; Masayuki, priority 1978, dated 1981).

In the case of `CCOC(=O)c1c(C)cc2cnn(-c3ccccc3Cl)c(=O)c2c1C` [7-ethoxycarbonyl-6,8-dimethyl-2-(o-chlorophenyl)-1-phthalazone], the LD50 is 386 mg/kg.
For `CCOC(=O)c1c(C)cc2c(CO)nn(-c3ccccc3Cl)c(=O)c2c1C` [7-ethoxycarbonyl-6,8-dimethyl-2-(o-chlorophenyl)-4-hydroxymethyl-1-phthalazone] the value was 564 mg/kg.
For `CCOC(=O)c1c(C)cc2cnn(-c3ccccc3F)c(=O)c2c1C` [7-ethoxycarbonyl-6,8-dimethyl-2-(o-fluorophenyl)-1-phthalazone] the value was 450 mg/kg; for `CCOC(=O)c1c(C)cc2cnn(-c3ccccc3)c(=O)c2c1C` [7-ethoxycarbonyl-6,8-dimethyl-2-phenyl-1-phthalazone], 480 mg/kg.
`CCOC(=O)c1c(C)cc2c(CO)nn(-c3ccccc3)c(=O)c2c1C` [7-ethoxycarbonyl-6,8-dimethyl-4-hydroxymethyl-2-phenyl-1-phthalazone] had a median lethal dose (LD50) of 540 mg/kg.

A word on the LD50: it is the dose expected to kill half of the subjects tested.
